Measured values reported in US20080159987A1 (priority 2007, published 2008).

Legend:
IBS patients with RLS [1] = assay: Open-label, observational pilot trial: GI (IBS) symptom improvement questionnaire; format: in vivo, human
Description: (§1) Patients visiting a community-based adult gastroenterology clinic over a 4-month period were eligible for the study if they presented with functional bowel symptoms and had abnormal lactulose breath test (LBT) results. Patients were excluded if they had celiac disease, Crohn's disease, pancreatic insufficiency, ulcerative colitis, scleroderma, diabetes, chronic renal failure, or surgeries predisposing them to SIBO. A diagnosis of RLS was confirmed using the Johns Hopkins validated interview process.
(§2) This was followed by long-term administration of the prokinetic medicine tegaserod (ZELNORM® produced by Novartis Pharmaceuticals Corporation, East Hanover, N.J.) 3 mg nightly plus short-term treatment with zinc 220 mg/d for one month for increased small intestinal permeability and a bifidobacteria-based probiotic (FLORA-Q® produced by Kenwood Therapeutics, Fairfield, N.J.) once daily for one month. Two patients were treated with rifaximin alone.
Each patient completed a questionnaire identifying the occurrence and rating the severity of six IBS symptoms experienced during the week before the LBT was conducted (baseline): abdominal pain, bloating, constipation, diarrhea, flatulence, and postprandial fullness. A history consistent with RLS and fibromyalgia was sought. Serum ferritin levels were measured at baseline.
(§3) The percentage of RLS symptom improvement was assessed at the end of follow-up.
(§4) The remaining two patients (the neurology clinic patient and propositus) received a modified treatment regimen.
Percentages of RLS and IBS symptom improvement as well as global IBS symptom improvement were assessed at a mean of 107 days (range, 22-450 days). […] The ten patients who responded included the three patients who had borderline or low serum levels of iron at baseline. […] Eight of the ten patients with at least 80% improvement in RLS symptoms were followed long-term (mean, 139 days; range, 54-450 days), and 5 of the 8 patients reported complete (100%) resolution of RLS symptoms at the last follow-up visit.

IBS patients with RLS [2] = assay: Open-label, observational pilot trial: RLS symptom improvement; format: in vivo, human
Description: It was suspected that the patient might have postinfectious IBS and SIBO.
as §1, §2, §3
Thirteen IBS patients with confirmed RLS were included in the study. Eleven of these 13 patients were originally included in a SIBO study of IBS: 19 of 161 patients with an abnormal LBT result thought they had RLS. A diagnosis of RLS was confirmed in 11 of these 19 patients by the Johns Hopkins validated interview process. The remaining 2 of 13 patients with RLS (1 was the propositus and the other was referred from a neurology clinic) had been previously evaluated and treated for RLS by a neurologist.
as §4
Percentages of RLS and IBS symptom improvement as well as global IBS symptom improvement were assessed at a mean of 107 days (range, 22-450 days). […] The ten patients who responded included the three patients who had borderline or low serum levels of iron at baseline. […]

[3] = cited from earlier work
IBS patients with RLS [4] = assay: Follow-up lactulose breath test (LBT); format: in vivo, human; settings: neurology patient, two months after completing rifaximin therapy
Method: Patients consumed a low carbohydrate dinner and fasted overnight. Breath samples were collected every 15 minutes for 180 minutes and were analyzed by gas chromatography (using, for example, a QUINTRON DP PLUS MICROLYZER™ manufactured by QuinTron Instrument Company, Milwaukee, Wis.) for levels of hydrogen and methane. After a baseline recording, patients consumed 10 g of lactulose powder (for example, KRISTALOSE® produced by Bertek Pharmaceuticals Inc, Sugar Land, Tex.) dissolved in 240 mL of water. An abnormal LBT result was defined as an increase of greater than 20 ppm above baseline levels for hydrogen and/or methane gas 180 minutes or less after ingesting lactulose. An abnormal flatline LBT result was defined as a lack of a greater than 5-ppm increase above baseline levels for either hydrogen or methane during the 180-minute test. The role of SIBO in IBS and diseases other than restless legs syndrome, as well as the efficacy of breath tests in the diagnosis of SIBO is discussed in U.S. Pat. Nos. 6,861,053; 6,805,852; 7,056,686; and 7,048,906 to Lin and Pimentel, the disclosures of each of which are expressly incorporated by reference herein.

[5] = day 11, after ten days of rifaximin therapy
[6] = end of follow-up (mean 107 days), rifaximin followed by tegaserod, zinc, probiotic in 11 of 13
[7] = last follow-up visit, 13 patients

CO[C@H]1/C=C/O[C@@]2(C)Oc3c(C)c(O)c4c(O)c(c5c(nc6cc(C)ccn65)c4c3C2=O)NC(=O)/C(C)=C\C=C\[C@H](C)[C@H](O)[C@@H](C)[C@@H](O)[C@@H](C)[C@H](OC(C)=O)[C@@H]1C [rifaximin]
GI symptom improvement: abdominal pain (IBS patients with RLS [1]; [5]): 74% | GI symptom improvement: bloating (IBS patients with RLS [1]; [5]): 70% | GI symptom improvement: constipation (IBS patients with RLS [1]; [5]): 64% | GI symptom improvement: diarrhea (IBS patients with RLS [1]; [5]): 73% | GI symptom improvement: flatulence (IBS patients with RLS [1]; [5]): 47% | GI symptom improvement: postprandial fullness (IBS patients with RLS [1]; [5]): 65% | GI symptom improvement: abdominal pain (IBS patients with RLS [1]; [6]): 81% | GI symptom improvement: bloating (IBS patients with RLS [1]; [6]): 76% | GI symptom improvement: constipation (IBS patients with RLS [1]; [6]): 59% | GI symptom improvement: diarrhea (IBS patients with RLS [1]; [6]): 68% | GI symptom improvement: flatulence (IBS patients with RLS [1]; [6]): 55% | GI symptom improvement: postprandial fullness (IBS patients with RLS [1]; [6]): 67% | global symptom improvement rated as greatly improved (IBS patients with RLS [1]; [7]): 6 patients | global symptom improvement rated as mildly improved (IBS patients with RLS [1]; [7]): two | global symptom improvement rated as moderately improved (IBS patients with RLS [1]; [7]): five | patients reporting complete (100%) resolution of RLS symptoms at the last follow-up visit (IBS patients with RLS [2]; of 8 responders followed long-term (mean 139 days; range 54-450 days)): 5 of the 8 | patients exhibiting at least 80% improvement in RLS symptoms at the last follow-up visit (IBS patients with RLS [2]; rifaximin 400 mg three times daily for ten days, in 11 of 13 followed by tegaserod, zinc, probiotic, assessed at mean 107 days (range 22-450)): Ten of 13 | response for both RLS and IBS symptoms (IBS patients with RLS [2]; single patient (propositus), empiric treatment with rifaximin): dramatic, rapid, and prolonged response | solubility in water [3]: practically insoluble in water | LBT result after therapy (IBS patients with RLS [4]): normal
